Patent US12492173B2, “Herbicidal substituted N-tetrazolyl aryl carboxamides” (Bayer Aktiengesellschaft, priority 2019, dated 2025)

Key:
Format in all cases: in vivo
Pharbitis purpurea = assay: Post-emergence herbicidal action, PHBPU; conditions: for Herbicidal action against PHBPU: post-emergence; for herbicidal action PHBPU: Dosage 80 g/ha
Procedure, shortened: (§1)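 Percent herbicidal effect was rated visually about 3 weeks after treatment, relative to untreated plants (0% = like control, 100% = dead). Compounds, formulated as WP or EC, went on as aqueous spray (600–800 l/ha, 0.2% wetting agent) to one-leaf-stage plants 2–3 weeks post-sowing in sandy loam.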

Echinochloa crus-galli = assay: Pre-emergence herbicidal action, ECHCG; parameters: key to Herbicidal action against ECHCG: % activity: 100 = plants have died, 0 = like control plants; conditions: for Herbicidal action against ECHCG: comparative experiment; for herbicidal activity ECHCG / herbicidal action ECHCG: dosage 320 g/ha; for herbicidal activity ECHCG: scored visually after 3 weeks vs untreated controls (100% = plants have died)
Procedure, shortened: (§2)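 Application took place on the soil surface immediately after sowing into sandy loam, using aqueous WP or EC preparations with 0.2% wetting agent. Visual percent scoring followed 3 weeks later, untreated pots serving as reference.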

Avena fatua = assay: Post-emergence herbicidal action, AVEFA; parameters: key: % herbicidal action vs untreated; 100 = plants died, 0 = like control; conditions: for Herbicidal action against AVEFA: post-emergence; for herbicidal action AVEFA: Dosage 80 g/ha
Procedure, shortened: as §1

Alopecurus myosuroides = assay: Post-emergence herbicidal action, ALOMY; parameters: key: % herbicidal action vs untreated; 100 = plants died, 0 = like control; conditions: for herbicidal action ALOMY: Dosage 80 g/ha
Procedure, shortened: as §1

Stellaria media = assay: Pre-emergence herbicidal action, STEME; parameters: key to Herbicidal action against STEME: % activity: 100 = plants have died, 0 = like control plants; conditions: for herbicidal activity STEME / herbicidal action STEME: dosage 320 g/ha; for herbicidal activity STEME: scored visually after 3 weeks vs untreated controls (100% = plants have died)
Procedure, shortened: as §2

Abutilon theophrasti = assay: Post-emergence herbicidal action, ABUTH; parameters: key: % herbicidal action vs untreated; 100 = plants died, 0 = like control; conditions: for herbicidal action ABUTH: Dosage 80 g/ha
Procedure, shortened: as §1

[1] = comparative experiment, 20 g of a.i./ha

| SMILES | herbicidal action PHBPU (Pharbitis purpurea) | herbicidal activity ECHCG (Echinochloa crus-galli) | herbicidal action AVEFA (Avena fatua) | herbicidal activity STEME (Stellaria media) | herbicidal action ABUTH (Abutilon theophrasti) | herbicidal action ECHCG (Echinochloa crus-galli) | also measured |
| --- | --- | --- | --- | --- | --- | --- | --- |
| CCS(=O)(=O)c1c(C(F)(F)F)ccc(C(=O)Nc2nnnn2C)c1Br [Example V-13, 2-bromo-3-(ethylsulfonyl)-N-(1-methyl-1-1H-tetrazol-5-yl)-4-(trifluoromethyl)benzamide, reference compound] | – | – | – | – | – | – | Herbicidal action against PHBPU (Pharbitis purpurea; [1]): 0; Herbicidal action against ECHCG (Echinochloa crus-galli; 80 g of a.i./ha): 0; Herbicidal action against AVEFA (Avena fatua; [1]): 0; Herbicidal action against ALOMY (Alopecurus myosuroides; comparative experiment, post-emergence, 20 g of a.i./ha): 0 |
| CCSCc1c(C(F)(F)F)ccc(C(=O)Nc2nnnn2C)c1SCC [Example 1-182] | 90 | 100% | 80 | 90% | 90 | – | Herbicidal action against ECHCG (Echinochloa crus-galli; 20 g of a.i./ha): 80; Herbicidal action against STEME (Stellaria media; [1]): 90; Herbicidal action against ABUTH (Abutilon theophrasti; comparative experiment, post-emergence, 5 g of a.i./ha): 70 |
| Cc1c(C(=O)Nc2nnnn2C)ccc(C(F)F)c1C[S+](C)[O-] (stereo not shown) [Example 1-108] | 90 | – | – | – | 80 | 100% | – |
| CCCn1nnnc1NC(=O)c1ccc(C(F)F)c(C[S+](C)[O-])c1SC (stereo not shown) [Example 3-171] | 90 | 100% | – | 100% | 100 | – | – |
| COc1c(C(=O)Nc2nnnn2C)ccc(C(F)(F)F)c1C[S+](C)[O-] (stereo not shown) [Example 1-135] | 90 | – | – | – | 90 | 100% | herbicidal action STEME (Stellaria media): 80% |
| CCn1nnnc1NC(=O)c1ccc(C(F)F)c(C[S+](C)[O-])c1C (stereo not shown) [Example 2-108] | 100 | – | – | – | 100 | 90% | herbicidal action ALOMY (Alopecurus myosuroides): 80 |
| CCn1nnnc1NC(=O)c1ccc(C(F)F)c(CSC)c1SC [Example 2-170] | 90 | 100% | – | 100% | 100 | – | herbicidal action ALOMY (Alopecurus myosuroides): 80 |
| CCCn1nnnc1NC(=O)c1ccc(S(C)(=O)=O)c(CS(C)(=O)=O)c1C [Example 3-39] | 90 | – | 80 | – | 90 | 90% | – |
| Cc1ccc(C(=O)Nc2nnnn2C)c(Cl)c1C[S+](C)[O-] (racemic) [Example 1-288] | 90 | – | – | – | 90 | 90% | herbicidal action ALOMY (Alopecurus myosuroides): 80; herbicidal action STEME (Stellaria media): 90% |
| CCn1nnnc1NC(=O)c1ccc(S(C)(=O)=O)c(CS(C)(=O)=O)c1Cl [Example 2-280] | – | – | – | – | – | 100% | Herbicidal action against PHBPU (Pharbitis purpurea; dosage 80 g/ha): 90; Herbicidal action against AVEFA (Avena fatua; dosage 80 g/ha): 90; herbicidal action STEME (Stellaria media): 80% |
| CCS(=O)(=O)Cc1c(C(F)(F)F)ccc(C(=O)Nc2nnnn2C)c1C [Example 1-88] | 90 | – | 80 | – | 80 | 100% | herbicidal action ALOMY (Alopecurus myosuroides): 80 |
| Cn1nnnc1NC(=O)c1ccc(C(F)(F)F)c(CS(C)(=O)=O)c1C(F)(F)C(F)(F)F [Example 1-552] | 100 | 100% | 90 | 100% | 90 | – | – |
| CCCn1nnnc1NC(=O)c1ccc(C(F)(F)F)c(C[S+](C)[O-])c1OC (stereo not shown) [Example 3-135] | 90 | – | 100 | – | 100 | 100% | herbicidal action STEME (Stellaria media): 100% |
| CCn1nnnc1NC(=O)c1ccc(C(F)F)c(C[S+](C)[O-])c1SC (stereo not shown) [Example 2-171] | 100 | 100% | – | 100% | 100 | – | – |
